This passage reports IC50 results from publication PMC12269843, “The molecular basis of T cell receptor recognition of citrullinated tenascin-C presented by HLA-DR4” (The Journal of Biological Chemistry, 2025).

What all share (test): Fluorescence polarization peptide competition assay
A general note: In fluorescence polarisation assays a small probe gives low polarisation when free and higher when bound to something large.

The target of test [1] is HLA-DRB1^∗01:01 (Homo sapiens, UniProt P01903+P01911, A100R/D57E/F55L/F60I/F76Y/I96L/L162R/M171V/P40L/Q125E/R42F/V115G/Y59C). Particulars: competition with 20 nM TAMRA-HA, 100 nM HLA-DRB1, 20 nM HLA-DM, 100 mM trisodium citrate pH 5.4, 50 mM NaCl, 5 mM EDTA, 37 °C, 24-72 h, two independent experiments in triplicate, read-out: IC50, competitive binding to DRB1^∗01:01.
Test [2] deals with HLA-DRB1^∗14:02 (Homo sapiens, UniProt P01903+P01911, A100R/A169T/D57E/F76Y/I96L/K41T/L162R/M171V/P40S/Q125H/Q178H/Q39Y/R42S/S66N/T262R/V115G/W38E/Y61H). As to conditions: competition with 20 nM TAMRA-HA, 100 nM HLA-DRB1, 20 nM HLA-DM, 100 mM trisodium citrate pH 5.4, 50 mM NaCl, 5 mM EDTA, 37 °C, 24-72 h, two independent experiments in triplicate, read-out: IC50, competitive binding to DRB1^∗14:02.

For test [3], the target named is T1, HLA-DRB1^∗04:01 (Homo sapiens, UniProt P01903+P01911, A100K/A169T/F76Y/I96L/K127E/L162R/M171V/N62H/P40V/Q125Y/R42H/S133A/S149N/S66Y/V115G/V209L/W38E).
T1 construct: the extracellular domains of the α-chain and β-chain of HLA-DRB1^∗04:01; Fos/Jun leucine zipper (C); invariant chain (CLIP) peptide, covalently linked; made in house
As to conditions: competition with 20 nM TAMRA-HA, 100 nM HLA-DRB1, 20 nM HLA-DM, 100 mM trisodium citrate pH 5.4, 50 mM NaCl, 5 mM EDTA, 37 °C, 24-72 h, two independent experiments in triplicate, read-out: IC50, competitive binding to DRB1^∗04:01.

Test [4] deals with HLA-DRB1^∗04:05 (Homo sapiens, UniProt P01903+P01911, A100R/A169T/D86S/F76Y/I96L/K127E/L162R/M171V/N62H/P40V/Q125Y/R42H/S133A/S149N/S66Y/V115G/V209L/W38E). As to conditions: competition with 20 nM TAMRA-HA, 100 nM HLA-DRB1, 20 nM HLA-DM, 100 mM trisodium citrate pH 5.4, 50 mM NaCl, 5 mM EDTA, 37 °C, 24-72 h, two independent experiments in triplicate, read-out: IC50, competitive binding to DRB1^∗04:05.

The target of test [5] is HLA-DRB1^∗04:04 (Homo sapiens, UniProt P01903+P01911, A100R/A169T/F76Y/I96L/K127E/L162R/M171V/N62H/P40V/Q125Y/R42H/S133A/S149N/S66Y/V209L/W38E). As to conditions: competition with 20 nM TAMRA-HA, 100 nM HLA-DRB1, 20 nM HLA-DM, 100 mM trisodium citrate pH 5.4, 50 mM NaCl, 5 mM EDTA, 37 °C, 24-72 h, two independent experiments in triplicate, read-out: IC50, competitive binding to DRB1^∗04:04.

SMILES strings stand for the structures. Where a SMILES comes first, the peptide text is derived from it.

One may read the IC50 as the concentration at which inhibition is half-maximal. As for `CC(C)C[C@H](NC(=O)[C@H](CCCNC(N)=O)NC(=O)[C@H](Cc1ccc(O)cc1)NC(=O)[C@H](CCCNC(N)=O)NC(=O)[C@@H](N)CC(=O)O)C(=O)N[C@@H](CC(N)=O)C(=O)N[C@@H](Cc1ccc(O)cc1)C(=O)N[C@@H](CO)C(=O)N[C@@H](CC(C)C)C(=O)N1CCC[C@H]1C(=O)N[C@H](C(=O)NCC(=O)O)[C@@H](C)O` [TNC^1014,1016cit] (HELM PEPTIDE1{D.[Cit].Y.[Cit].L.N.Y.S.L.P.T.G}$$$$V2.0), the IC50 in test [1] is 800 nM; in test [2] it was 1310 nM; in test [3], 1140 nM; in test [4] it was 4810 nM; in test [5], greater than 300000 nM.
